Consider 22 molecules from US20060025474A1, “Bisphenyl compounds useful as vitamin D3 receptor agonists” (priority 2004, published 2006).

For data set [1], the system named is ovariectomized (OVX) rats. In words: Bone mineral density in the ovariectomized (OVX) rats (2). It is filed as in vivo, Sprague-Dawley rats. Conditions: orally seven times a week for 4 weeks; for Spinal BMD: L2-L5. Here is the method:
Bone Mineral Density in the Ovariectomized (OVX) Rats (2)
Alfacalcidol was synthesized in Chugai Pharmaceutical Co., Ltd., Japan, dissolved in a vehicle (medium chain triglyceride, MCT) and diluted to a given concentration. The stock solutions were protected from light and stored at 4° C.
Eight-month-old female Sprague-Dawley (Crl:CD(SD)) rats were purchased from Charles River Japan Inc. (Kanagawa, Japan) and acclimated under standard laboratory conditions at 23±2° C. and 40-70% humidity. The rats were allowed free access to tap water and commercial standard rodent chow CRF-1 (Oriental Yeast Co. Ltd., Japan).
Sham-operated (n=8) and the ovariectomized (OVX) rats were used. The OVX rats were divided into each group (n=8) one day after the surgery. In the sham and OVX control groups, rats received the vehicle (MCT) p.o. at a dose of 1 ml/kg body weight (BW) every day. Each compound was given orally seven times a week for 4 weeks.
During the 24 hours from the last administration, urine was collected with metabolic cage, and blood was drawn from the jugular vein under ether anesthesia. Blood and urine samples were centrifuged to obtain the supernatant, which were stored at −20° C. until assay. The lumbar vertebrae and femora were removed. The lumbar vertebra and the right femur were stored i 70% ethanol at 4° C. for the measurement of bone mineral density (BMD).
Serum and Urine Biochemistry
Serum calcium (Ca) and inorganic phosphorus (Pi) concentrations were measured with an autoanalyzer (Hitachi 7170, Tokyo, Japan). The serum osteocalcin concentration was measured with Osteocalcin rat ELISA system (Smersham Pharmacia Biotech, Tokyo, Japan). Urinary Ca, Pi, and creatinine (Cre) were measured with an autoanalyzer. Urinary deoxypyridinoline (D-Pyr) was measured using a Metra DPD EIA kit (Quidel Co., USA), and the data were corrected for urinary Cre concentrations.
Measurement of Bone Mineral Density
The second through fifth lumbar vertebaral (L2-L5) BMD (mg/cm^2) and femoral BMD were measured by dual-energy X-ray absorptiometry (DCS-600-EX, Aloka, Japan).

In data set [2] the test system is ECAC2 mRNA in Caco-2 cells. The format is cell-based. In outline:
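Caco-2 cells grown 4 days, then exposed 1 day at 37° C to compounds in medium with 10% FBS, refreshed twice daily. ECAC2 mRNA by one-step TaqMan RT-PCR, normalized to GAPDH. EC50 from Emax model, expressed as ratio to LG190178 EC50.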

For `C=C1/C(=C\C=C2/CCC[C@]3(C)[C@@H]([C@H](C)CCCC(C)C)CC[C@@H]23)C[C@@H](O)C[C@@H]1O` [Alfacalcidol], the “serum Ca” value in data set [1] (0.125 microgram/kg/week) came out at 10.2 mg/dL; in data set [1] (0.25 microgram/kg/week), 10.6 mg/dL; in data set [1] (0.5 microgram/kg/week), 10.7 mg/dL. Further, the “Spinal BMD” value in data set [1] (0.125 microgram/kg/week) was 182.1 mg/cm2; in data set [1] (0.25 microgram/kg/week) it was 180.9 mg/cm2; in data set [1] (0.5 microgram/kg/week), 185.1 mg/cm2.
As for `CCC(O)(/C=C/c1ccc(C(CC)(CC)c2ccc(OCCCCCN)c(C)c2)cc1C)CC` [Example 119, (E)-1-(4-{1-[4-(5-Amino-pentyloxy)-3-methyl-phenyl]-1-ethyl-propyl}-2-methyl-phenyl)-3-ethyl-pent-1-en-3-ol], in data set [2], the “ECaC-2 mRNA induction activity in Caco-2 cells” value (shortened to “ECaC-2 mRNA induction activity”) was determined as 12%.
On the same count and under the same terms, the result for `CCC(CC)(c1ccc(/C=C/C2(O)CCCC2)c(C)c1)c1ccc(OCCCCCN)c(C)c1` [Example 121, 1-[(E)-2-(4-{1-[4-(5-Amino-pentyloxy)-3-methyl-phenyl]-1-ethyl-propyl}-2-methyl-phenyl)-vinyl]-cyclopentanol] reads 75%.
Turning to `CCC(CC)(c1ccc(/C=C/C(O)(C(F)(F)F)C(F)(F)F)c(C)c1)c1ccc(OCCCCCN)c(C)c1` [Example 125, (E)4-(4-{1-[4-(5-Amino-pentyloxy)-3-methyl-phenyl]-1-ethyl-propyl}-2-methyl-phenyl)-1,1,1-trifluoro-2-trifluoromethyl-but-3-en-2-ol], the “ECaC-2 mRNA induction activity” value in data set [2] is listed as under 10%.
The same measure, in the same setting: the result for `CCC(O)(/C=C/c1ccc(C(CC)(CC)c2ccc(OCc3ccc(C(=O)O)cc3)c(C)c2)cc1C)CC` [Example 147, 4-(4-{I-Ethyl-1-[4-((E)-3-ethyl-3-hydroxy-pent-1-enyl)-3-methyl-phenyl]-propyl}-2-methyl-phenoxymethyl)-benzoic acid] reads 75%; that for `CCC(CC)(c1ccc(C#CC(O)(C(F)(F)F)C(F)(F)F)c(C)c1)c1ccc(OC[C@H](O)CCCO)c(C)c1` [Example 152, (R)-5-(4-{1-Ethyl-1-[3-methyl-4-(4,4,4-trifluoro-3-hydroxy-3-trifluoromethyl-but-1-ynyl)-phenyl]-propyl}-2-methyl-phenoxy)-pentane-1,4-diol], 586%; that for `CCC(CC)(c1ccc(C#CC(O)(C(F)(F)F)C(F)(F)F)c(C)c1)c1ccc(OC[C@@H](O)CCCO)c(C)c1` [Example 153, (S)-5-(4-{1-Ethyl-1-[3-methyl-4-(4,4,4-trifluoro-3-hydroxy-3-trifluoromethyl-but-1-ynyl)-phenyl]-propyl}-2-methyl-phenoxy)-pentane-1,4-diol], 1662%.
On the same count and under the same terms, the result for `CCC(CC)(c1ccc(/C=C/C(O)(C(F)(F)F)C(F)(F)F)c(C)c1)c1ccc(OC[C@H](O)CCCO)c(C)c1` [Example 154, (R)-5-(4-{1-Ethyl-1-[3-methyl4-((E)-4,4,4-trifluoro-3-hydroxy-3-trifluoromethyl-but-1-enyl)-phenyl]-propyl}-2-methyl-phenoxy)-pentane-1,4-diol] reads 1784%; that for `CCC(CC)(c1ccc(/C=C/C(O)(C(F)(F)F)C(F)(F)F)c(C)c1)c1ccc(OC[C@H]2CCCO2)c(C)c1` [Example 155, (E)4-[4-(1-Ethyl-1-{3-methyl4-[(R)-1-(tetrahydro-furan-2-yl)methoxy]-phenyl}-propyl)-2-methyl-phenyl]-11,11-trifluoro-2-trifluoromethyl-but-3-en-2-ol], 86%.
With `CCC(CC)(c1ccc(/C=C/C(O)(C(F)(F)F)C(F)(F)F)c(C)c1)c1ccc(OC[C@@H](O)CCCO)c(C)c1` [Example 156, (S)-5-(4-{1-Ethyl-1-[3-methyl4-((E)4,4,4-trifluoro-3-hydroxy-3-trifluoromethyl-but-1-enyl)-phenyl]-propyl}-2-methyl-phenoxy)-pentane-1,4-diol], in data set [2], the “ECaC-2 mRNA induction activity” value is 4760%.
Still for that read-out and setting: the result for `CCC(CC)(c1ccc(/C=C/C(O)(C(F)(F)F)C(F)(F)F)c(C)c1)c1ccc(OC[C@@H]2CCCO2)c(C)c1` [Example 157, (E)4-[4-(1-Ethyl-1-{3-methyl-4-[(S)-1-(tetrahydro-furan-2-yl)methoxy]-phenyl}-propyl)-2-methyl-phenyl]-1,1,1-trifluoro-2-trifluoromethyl-but-3-en-2-ol] reads 1647%.
With `CCC(O)(/C=C/c1ccc(C(CC)(CC)c2ccc(OC[C@@H](O)CCC(=O)O)cc2)cc1C)CC` [Example 165, (S)-5-(4-{1-Ethyl-1-[4-((E)-3-ethyl-3-hydroxy-pent-1-enyl)-3-methyl-phenyl]-propyl}-phenoxy)4-hydroxy-pentanoic acid], in data set [2], the “ECaC-2 mRNA induction activity” value was 2017%.
On to `CCC(O)(/C=C/c1ccc(C(CC)(CC)c2cc(C)c(OC[C@@H]3CCC(=O)O3)c(C)c2)cc1C)CC` [Example 166, (S)-5-(4-{1-Ethyl-1-[4-((E)-3-ethyl-3-hydroxy-pent-1-enyl)-3-methyl-phenyl]-propyl}-2,6-dimethyl-phenoxymethyl)-dihydro-furan-2-one], for which the “ECaC-2 mRNA induction activity” value in data set [2] turned out to be 86%.
In the case of `CCC(O)(/C=C/c1ccc(C(CC)(CC)c2cc(C)c(OC[C@@H](O)CCC(=O)O)c(C)c2)cc1C)CC` [Example 167, (S)-5-(4-{1-Ethyl-1-[4-((E)-3-ethyl-3-hydroxy-pent-1-enyl)-3-methyl-phenyl]-propyl}-2,6-dimethyl-phenoxy)-4-hydroxy-pentanoic acid], in data set [2], the “ECaC-2 mRNA induction activity” value is recorded as 323%.
Turning to `CCCc1cc(C(CC)(CC)c2ccc(OC[C@@H](O)CCC(=O)O)c(C)c2)ccc1/C=C/C(O)(CC)CC` [Example 170, (S)-5-(4-{1-Ethyl-1-[4-((E)-3-ethyl-3-hydroxy-pent-1-enyl)-3-propyl-phenyl]-propyl}-2-methyl-phenoxy)4-hydroxy-pentanoic acid], in data set [2], the “ECaC-2 mRNA induction activity” value amounted to 191%.
As for `CCC(CC)(c1ccc(CCC(O)C(C)(C)C)c(C)c1)c1ccc(OC[C@@H](O)CCCC(=O)O)c(C)c1` (stereo partly drawn) [Example 186, 6-(4-{1-Ethyl-1-[4-(3-hydroxy-4,4-dimethyl-pentyl)-3-methyl-phenyl]-propyl}-2-methyl-phenoxy)-5(S)-hydroxy-hexanoic acid], in data set [2], the “ECaC-2 mRNA induction activity” value is listed as 57%.
As for `CCC(CC)(c1ccc(CCC(O)C(C)(C)C)c(C)c1)c1ccc(OC[C@@H](O)CCCC(=O)O)c(C)c1` (stereo partly drawn) [Example 187, 6-(4-{1-Ethyl-1-[4-(3-hydroxy-4,4-dimethyl-pentyl)-3-methyl-phenyl]-propyl}-2-methyl-phenoxy)-5(S)-hydroxy-hexanoic acid], the “ECaC-2 mRNA induction activity” value in data set [2] was found to be 545%.
In the case of `CCC(O)(/C=C/c1ccc(C(CC)(CC)c2ccc(OC[C@H]3CCCC(=O)O3)c(C)c2)cc1C)CC` [Example 190, 6(R)-(4-{1-Ethyl-1-[4-((E)-3-ethyl-3-hydroxy-pent-1-enyl)-3-methyl-phenyl]-propyl}-2-methyl-phenoxymethyl)-tetrahydro-pyran-2-one], the “ECaC-2 mRNA induction activity” value in data set [2] was 22%.
The same measure, in the same setting: the result for `CCC(CC)(c1ccc(C#CCCCC(=O)O)c(C)c1)c1ccc(C#CC(O)(C(F)(F)F)C(F)(F)F)c(C)c1` [Example 192, 6-(4-{1-Ethyl-1-[3-methyl-4-(4,4,4-trifluoro-3-hydroxy-3-trifluoromethyl-but-1-ynyl)-phenyl]-propyl}-2-methyl-phenyl)-hex-5-ynoic acid] reads 292%.
With `CCC(O)(/C=C/c1ccc(C(CC)(CC)c2ccc(OCC(=O)NCCN)c(C)c2)cc1C)CC` [Example 195, (E)-N-(2-Amino-ethyl)-2-(4-{1-ethyl-1-[4-(3-ethyl-3-hydroxy-pent-1-enyl)-3-methyl-phenyl]-propyl}-2-methyl-phenoxy)-acetamide], the “ECaC-2 mRNA induction activity” value in data set [2] was 135%.
In the case of `CCC(O)(/C=C/c1ccc(C(CC)(CC)c2ccc(OCC(=O)CCC(=O)O)c(C)c2)cc1C)CC` [Example 198, (E)-5-(4-{1-Ethyl-1-[4-(3-ethyl-3-hydroxy-pent-1-enyl)-3-methyl-phenyl]-propyl}-2-methyl-phenoxy)-4-oxo-pentanoic acid], the “ECaC-2 mRNA induction activity” value in data set [2] came to 271%.
Same read-out and setting: the result for `CCC(CC)(c1ccc(OCC(O)CO)c(C)c1)c1ccc(OCC(O)C(C)(C)C)c(C)c1` (stereo not drawn) [LG190178, reference compound] reads 100%.
